From PMC2947195 (Biochemical Journal, 2010) come the findings set out here.

Changes are numbered by the printed parent chain. Read-outs that look alike come from different tables or passages of the source.

Holding throughout (assay): Competitive inhibition of [3H]MTX uptake
What all share (format): cell-based

In one assay the target is T1, S313A hRFC (Homo sapiens, UniProt P41440, S313A).
T1 sequence (P41440 1-591 S313A): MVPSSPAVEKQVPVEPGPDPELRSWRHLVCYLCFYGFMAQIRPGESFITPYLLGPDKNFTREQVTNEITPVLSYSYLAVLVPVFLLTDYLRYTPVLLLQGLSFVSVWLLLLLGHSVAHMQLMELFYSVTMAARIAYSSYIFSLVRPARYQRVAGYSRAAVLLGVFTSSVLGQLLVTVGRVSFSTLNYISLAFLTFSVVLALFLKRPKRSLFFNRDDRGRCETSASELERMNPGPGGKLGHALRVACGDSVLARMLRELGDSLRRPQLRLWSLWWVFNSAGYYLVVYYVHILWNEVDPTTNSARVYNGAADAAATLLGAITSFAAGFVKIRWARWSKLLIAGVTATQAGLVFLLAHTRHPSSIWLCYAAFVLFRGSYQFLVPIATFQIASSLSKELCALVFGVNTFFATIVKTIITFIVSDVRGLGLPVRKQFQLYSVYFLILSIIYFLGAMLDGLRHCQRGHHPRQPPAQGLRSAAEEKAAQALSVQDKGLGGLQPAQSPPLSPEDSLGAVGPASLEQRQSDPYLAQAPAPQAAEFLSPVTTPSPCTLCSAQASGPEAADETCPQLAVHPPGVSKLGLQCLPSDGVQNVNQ

Another assay has as its target T2, S313T hRFC (Homo sapiens, UniProt P41440, S313T).
T2 sequence (P41440 1-591 S313T): T1 sequence (P41440 1-591 S313A) with A313T
To be noted: for decrease of Ki compared with wt hRFC: S313T hRFC versus wt hRFC.

For the next assay, the target named is T3, wt hRFC (Homo sapiens, UniProt P41440).
T3 sequence (P41440 1-591): T1 sequence (P41440 1-591 S313A) with A313S

Regarding `Nc1nc2c(c(=O)[nH]1)N(C=O)C(CNc1ccc(C(=O)N[C@@H](CCC(=O)O)C(=O)O)cc1)CN2` (stereo partly drawn) [Leucovorin, (6R,S)-5-formyl tetrahydrofolate], the results for the Ki at S313A hRFC, at S313T hRFC and on wt hRFC were 12.3 ± 0.88 µM, 7.74 ± 0.66 µM and 18.7 ± 1.54 µM, respectively. Also, the “decrease of Ki compared with wt hRFC” value at S313A hRFC (S313A hRFC versus wt hRFC) and on S313T hRFC was 2–3 fold each time.

`Nc1nc2[nH]cc(CCc3ccc(C(=O)N[C@@H](CCC(=O)O)C(=O)O)cc3)c2c(=O)[nH]1` [Pemetrexed, N-{4-[2(2-amino-3,4-dihydro-4-oxo-7H-pyrrolo[2,3-d]pyrimidin-5-yl)ethyl]benzoyl}-L-glutamic acid]: the “decrease of Ki compared with wt hRFC” value on S313A hRFC (S313A hRFC versus wt hRFC) and at S313T hRFC was 2–3 fold in each case.

For the compound `Cc1nc2ccc3ccc(CNc4ccc5c(c4)CN([C@@H](CCC(=O)O)C(=O)O)C5=O)cc3c2c(=O)[nH]1` [GW1843U89, (S)-2-[5-({[1,2-dihydro-3-methyl-1-oxo-benzo(f)quinazolin-9-yl]methyl}amino)1-oxo-2-isoindolinyl] glutaric acid], the Ki – broadly, a dissociation constant, usually derived from enzyme kinetics or from competition with a known ligand – at S313A hRFC was found to be 2.61 ± 0.5 µM; at S313T hRFC, 0.75 ± 0.06 µM; on wt hRFC, 2.1 ± 0.01 µM. Moreover, on S313T hRFC, the “decrease of Ki compared with wt hRFC” value is recorded as 2–3 fold.

In the case of `Nc1nc(N)c2nc(CNc3ccc(C(=O)N[C@@H](CCCNC(=O)c4ccccc4C(=O)O)C(=O)O)cc3)cnc2n1` [PT523, N^α-(4-amino-4-deoxypteroyl)-N^δ-hemiphthaloyl-L-ornithine], the Ki on S313A hRFC (S313A hRFC, inhibition of [3H]MTX (1 μM) uptake, Dixon plots, mean±S.E.M., n=3) is 3.13 ± 0.17 µM; at S313T hRFC (S313T hRFC, inhibition of [3H]MTX (1 μM) uptake, Dixon plots, mean±S.E.M., n=3), 2.86 ± 0.85 µM; at wt hRFC (wt hRFC, inhibition of [3H]MTX (1 μM) uptake, Dixon plots, mean±S.E.M., n=3), 4.56 ± 0.97 µM.

Regarding `Nc1nc(N)c2nc(CNc3ccc(C(=O)N[C@@H](CCC(=O)O)C(=O)O)cc3)cnc2n1` [Aminopterin, aminopterin], the results for the Ki at S313A hRFC, on S313T hRFC and at wt hRFC were 3.43 ± 0.58 µM, 2.75 ± 0.15 µM and 7.03 ± 0.02 µM, respectively. The “decrease of Ki compared with wt hRFC” value at S313A hRFC (S313A hRFC versus wt hRFC) and at S313T hRFC was 2–3 fold throughout.

For `CCC(Cc1cnc2nc(N)nc(N)c2n1)c1ccc(C(=O)N[C@@H](CCC(=O)O)C(=O)O)cc1` (stereo partly drawn) [Edatrexate, 10-ethyl-10-deazaaminopterin], the inhibitory constant (Ki) worked out at 4.25 ± 0.53 µM on S313A hRFC, 2.23 ± 0.38 µM on S313T hRFC and 5.48 ± 1.1 µM at wt hRFC.

In the case of `Nc1nc(=O)c2nc(CNc3ccc(C(=O)N[C@@H](CCC(=O)O)C(=O)O)cc3)cnc2[nH]1` [Folic acid, folic acid], the Ki on S313A hRFC was found to be 435 ± 82.7 µM; at S313T hRFC, 237 ± 58.4 µM; on wt hRFC it was 194 ± 5.45 µM. The “increase of Ki compared with wt carrier” value on S313A hRFC (S313A hRFC versus wt hRFC) is reported as ~ 2 fold.

As for `C#CCN(Cc1cc2c(=O)[nH]c(C)nc2cc1C)c1ccc(C(=O)N[C@@H](CCc2nnn[nH]2)C(=O)O)c(F)c1` [ZD9331, (2S)-2-{O-fluoro-p-[N-(2,7dimethyl-4-oxo-3,4-dihydro-quinazolin-6-ylmethyl)-N-(prop-2ynyl)amino]benzamido}-4-(tetrazol-5-yl)-butyric acid], the values for the Ki at S313A hRFC, at S313T hRFC and at wt hRFC were 2.96 ± 0.52 µM, 2.31 ± 0.18 µM and 4.42 ± 0.93 µM, respectively.

Regarding `Cc1nc2ccc(CN(C)c3ccc(C(=O)N[C@@H](CCC(=O)O)C(=O)O)s3)cc2c(=O)[nH]1` [Raltitrexed, N-{5-[N-(3,4-dihydro-2methyl-4-oxyquinazolin-6-ylmethyl)-N-methyl-amino]-2-thienoyl}-L-glutamic acid], the “decrease of Ki compared with wt hRFC” value on S313T hRFC is listed as 2–3 fold.
